Experimental data taken from patent US9474278B2, “Biocidal compositions and methods of use” (Dow Global Technologies LLC, priority 2011, dated 2016).

Legend:
[1] = test system: Staphylococcus aureus ATCC 6538, Enterobacter aerogenes ATCC 13048, and Escherichia coli ATCC 8739; test: Biocidal efficacy: minimum biocide concentration for 99.9% bacterial kill in inoculated salt solution with re-challenges; assay type: cell-based; conditions: alone or in the combination, 37° C.
Method: (§1) The synergy indexes reported in the following examples are calculated using the following equation: Synergy Index=Ca/CA+Cb/CB
Ca: Concentration of biocide A required to achieve a certain level of bacterial kill when used in combination with B.
CA: Concentration of biocide A required to achieve a certain level of bacterial kill when used alone.
Cb: Concentration of biocide B required to achieve a certain level of bacterial kill when used in combination with A.
CB: Concentration of biocide B required to achieve a certain level of bacterial kill when used alone.
(§2) A synergy index (SI) of 1 indicates additivity, a synergy index of less than 1 indicates synergy, and a synergy index greater than 1 indicates antagonism.
A sterile salt solution (0.2203 g of CaCl2, 0.1847 g of MgSO4, and 0.2033 g of NaHCO3 in 1 L water) is inoculated with approximately 10^7 CFU/mL of Staphylococcus aureus ATCC 6538, Enterobacter aerogenes ATCC 13048, and Escherichia coli ATCC 8739. Aliquots of the cell suspension are then treated with THPS, BIT, and combinations of these actives at selected concentrations and incubated at 37° C. for 14 days. After incubation for 24 hours, 3 days, and 7 days, the aliquots are re-challenged with bacterial suspension of the same bacteria at a final bacterial concentration of 10^5 CFU/mL. The biocidal efficacy is measured at 2 hours and 14 days by determining the minimum biocide concentration for 99.9% bacterial kill in the aliquots. Synergy Index is then calculated. Table 1 and 2 summarize the efficacy of each biocide and their combinations at 2 hour and 14 day treatment time respectively, and the resulting Synergy Index of each combination.

[2] = test system: Candida albican, ATCC #10231; test: 96 well micro titer plate MIC / synergy assay in SDB; assay type: cell-based; conditions: alone or in the combination, 48 hours
Method: as §1, §2

How did the “Concentration (ppm active) for 99.9% bacterial kill in 2 hours, BIT” value ([1]; BIT concentration, 2 hour treatment) turn out when `O=c1[nH]sc2ccccc12` [BIT, 1,2-benzisothiazolin-3-one] was run?
Its value is greater than 300 ppm active.

What about the “Concentration (ppm active) for 99.9% bacterial kill in 14 days, BIT” value ([1]; BIT concentration, 14 day treatment, re-challenged at 24 hours, 3 days, 7 days) of the same compound?
The value was 150 ppm active.

How did the “Minimum Inhibitory Concentration against Candida albican (ppm), MBIT” value ([2]; MBIT concentration) turn out when `Cn1sc2ccccc2c1=O` [MBIT, 2-methyl-1,2-benzisothiazolin-3-one] was run?
The value was 0.375 ppm.

Which “Concentration (ppm active) for 99.9% bacterial kill in 2 hours, THPS” value ([1]; THPS concentration, 2 hour treatment) does the source give for “tetrakis (hydroxymethyl) phosphonium sulfate [THPS]” here?
The value was 38 ppm active.

And the “Concentration (ppm active) for 99.9% bacterial kill in 14 days, THPS” value ([1]; THPS concentration, 14 day treatment, re-challenged at 24 hours, 3 days, 7 days)?
Its value is greater than 300 ppm active.

And the “Minimum Inhibitory Concentration against Candida albican (ppm), THPS” value ([2]; THPS concentration)?
Its value is 1000 ppm.
